Several values for one entry are separate records, joined by “and”; a condition that tells them apart may be missing. Identical values can stand only once.
Legend:
[1] = test system: PC-3 cells; assay: Cell cycle assay (PI flow cytometry); format: cell-based, human; details: PC-3, 2 µM, replicates
[2] = test system: 22Rv1 cells; assay: Anti-proliferation activity assay (CCK8, 72 h); format: cell-based, human; details: 22Rv1; for Relative proliferation rate (%) / optical density: replicates
[3] = test system: PC-3 xenograft; assay: In vivo antitumor activity, PC-3 xenograft mouse model; set-up: species or system BALB/c nude mice; details: Palbociclib group; for tumor volume (Figure S10a): in mm³ (unit assumed)

CC(=O)c1c(C)c2cnc(Nc3ccc(N4CCNCC4)cn3)nc2n(C2CCCC2)c1=O [palbociclib]
Cell cycle percentages ( % ) G0/G1 ([1]; G0/G1): 84.02% and 87.57% and 88.06% | Cell cycle percentages ( % ) G2/M ([1]; G2/M): 10.01% and 8.39% and 8.02% | Cell cycle percentages ( % ) S ([1]; S): 5.97% and 4.04% and 3.92% | Relative proliferation rate (%) mean ([2]; 0.0049 uM): 10.7151% | Relative proliferation rate (%) ([2]; 0.0049 uM): 10.6906% and 8.054% and 13.4011% | optical density ([2]; 0.0049 uM): 0.944 and 0.959 and 0.937 | Relative proliferation rate (%) mean ([2]; 0.078 uM): 28.5598% | Relative proliferation rate (%) ([2]; 0.078 uM): 28.5714% and 25.4075% and 31.7006% | optical density ([2]; 0.078 uM): 0.755 and 0.778 and 0.739 | Relative proliferation rate (%) mean ([2]; 0.3125 uM): 42.3403% | Relative proliferation rate (%) ([2]; 0.3125 uM): 42.3841% and 37.8715% and 46.7652% | optical density ([2]; 0.3125 uM): 0.609 and 0.648 and 0.576 | Relative proliferation rate (%) mean ([2]; 1.25 uM): 63.5644% | Relative proliferation rate (%) ([2]; 1.25 uM): 63.5762% and 60.0192% and 67.098% | optical density ([2]; 1.25 uM): 0.385 and 0.417 and 0.356 | Relative proliferation rate (%) mean ([2]; 5 uM): 73.8099% | Relative proliferation rate (%) ([2]; 5 uM): 73.6991% and 70.3739% and 77.3567% | optical density ([2]; 5 uM): 0.278 and 0.309 and 0.245 | Relative proliferation rate (%) mean ([2]; 20 uM): 83.6751% | Relative proliferation rate (%) ([2]; 20 uM): 83.6329% and 79.9616% and 87.4307% | optical density ([2]; 20 uM): 0.173 and 0.209 and 0.136 | Relative proliferation rate (%) mean ([2]; 80 uM): 92.6404% | Relative proliferation rate (%) ([2]; 80 uM): 92.6206% and 87.0566% and 98.244% | optical density ([2]; 80 uM): 0.078 and 0.135 and 0.019 | body weight (Figure S10b) ([3]; day 1, individual mice, in g (unit assumed)): 20.3 and 18.7 and 20.4 and 19.9 and 20.5 and 20.1 and 19.3 and 19.6 | tumor volume (Figure S10a) ([3]; day 1, individual mice): 71.756 and 85.3384 and 76.4514 and 97.6139 and 96.2115 and 81.8398 and 86.3514 and 80.8996 | body weight (Figure S10b) ([3]; day 3, individual mice): 20.6 (2×) and 19.9 (2×) and 20.3 (2×) and 20.4 and 19.5 | tumor volume (Figure S10a) ([3]; day 3, individual mice): 100.82 and 125.949 and 118.537 and 171.398 and 182.064 and 137.067 and 104.176 and 152.65 | body weight (Figure S10b) ([3]; day 5, individual mice, in g (unit assumed)): 20.8 and 20.1 and 20.9 and 20.5 and 20.7 and 20.6 and 19.4 and 20.3 | tumor volume (Figure S10a) ([3]; day 5, individual mice): 153.25 and 178.1 and 171.863 and 263.764 and 233.187 and 184.767 and 136.023 and 212 | body weight (Figure S10b) ([3]; day 7, individual mice): 21.1 (2×) and 20.4 (3×) and 20.6 and 20.9 and 19.6 | tumor volume (Figure S10a) ([3]; day 7, individual mice): 216.949 and 236.787 and 227.898 and 326.971 and 317.909 and 235.081 and 192.895 and 301.873 | body weight (Figure S10b) ([3]; day 9, individual mice): 21.3 and 20.2 and 21.1 and 20.9 (2×) and 21.2 and 20.1 and 19.8 | tumor volume (Figure S10a) ([3]; day 9, individual mice): 326.253 and 371.781 and 295.973 and 465.763 and 471.469 and 352.991 and 279.054 and 463.034 | body weight (Figure S10b) ([3]; day 11, individual mice): 21 and 20.5 and 21.4 and 21.2 and 21.5 (2×) and 20.3 and 20.1 | tumor volume (Figure S10a) ([3]; day 11, individual mice): 372.859 and 454.695 and 359.079 and 528.072 and 529.867 and 450.398 and 332.776 and 546.405 | body weight (Figure S10b) ([3]; day 13, individual mice, in g (unit assumed)): 21.3 and 20.8 and 21.6 and 21.5 and 22 and 20.7 and 20.4 and 21.8 | tumor volume (Figure S10a) ([3]; day 13, individual mice): 420.513 and 508.608 and 384.455 and 605.279 and 564.127 and 444.148 and 375.063 and 606.531 | body weight (Figure S10b) ([3]; day 15, individual mice): 21.1 and 20.8 and 21.3 and 21.6 and 22.2 (2×) and 20.3 and 20.7 | tumor volume (Figure S10a) ([3]; day 15, individual mice): 457.463 and 542.009 and 415.332 and 636.893 and 637.934 and 467.888 and 410.165 and 646.315 | body weight (Figure S10b) ([3]; day 17, individual mice, in g (unit assumed)): 21.5 and 21.1 and 21.7 and 22 and 22.3 and 20.6 and 21 and 22.4 | tumor volume (Figure S10a) ([3]; day 17, individual mice): 524.733 and 575.217 and 457.759 and 764.115 and 735.045 and 549.485 and 474.267 and 700.215 | body weight (Figure S10b) ([3]; day 19, individual mice, in g (unit assumed)): 21.8 and 21.4 and 22 and 22.2 and 22.5 and 20.9 and 21.1 and 22.7 | tumor volume (Figure S10a) ([3]; day 19, individual mice): 535.372 and 736.543 and 494.255 and 792.24 and 789.87 and 530.997 and 470.291 and 757.507 | body weight (Figure S10b) ([3]; day 21, individual mice): 22.2 (2×) and 21.8 and 22.6 and 23 and 21.2 and 21.5 and 22.9 | tumor volume (Figure S10a) ([3]; day 21, individual mice): 606.966 and 810.199 and 550.471 and 875.109 and 842.441 and 533.366 and 544.597 and 821.393 | body weight (Figure S10b) ([3]; day 23, individual mice, in g (unit assumed)): 22.4 and 21.9 and 22.5 and 22.9 and 23.5 and 21.6 and 21.7 and 23.3 | tumor volume (Figure S10a) ([3]; day 23, individual mice): 636.352 and 826.869 and 562.019 and 936.064 and 895.067 and 564.812 and 586.01 and 861.421 | body weight (Figure S10b) ([3]; day 25, individual mice, in g (unit assumed)): 22.7 and 22.2 and 22.8 and 23.3 | tumor volume (Figure S10a) ([3]; day 25, individual mice): 672.525 and 833.997 and 554.501 and 942.419 | tumor weight (Figure S10c) ([3]; individual mice, in g (unit assumed)): 0.86 and 0.74 and 1.05 and 0.97 and 0.73 and 0.85 and 0.69 and 0.92
